Data taken from patent US12691114B2, “Compositions for inhibition of herpesviruses” (The Medical College of Wisconsin, Inc., priority 2020, dated 2026).

Assays:
[1] = system: HCMV Towne entry into HFFs; experiment: HCMV entry, indirect immunofluorescence assay for pp65; type: cell-based; conditions: pretreatment 24 h: MLS8969 3 μM, Heparin 30 μM, GCV 5 μM; IFA 2 hpi
Protocol: HCMV entry and indirect immunofluorescence assay: MLS8969, GCV and heparin control were used to determine inhibition of HCMV entry. Compounds were diluted in serum-free media and added to HFFs seeded on chamber slides 24 h prior to infection. After infection (MOI 1 or 0.1 PFU/cell) for 2 h, cells were fixed with 100% chilled methanol, blocked for 1 h with phosphate-buffered saline (PBS), 5% serum, 0.3% Triton X-100. Cells were then incubated with mouse monoclonal anti-pp65 antibody, 1:50 (Vector Laboratories, Burlingame, CA) at 37° C. in humidified chambers for 1 h, washed three times with TBST (0.1%), incubated with rhodamine-conjugated anti-mouse IgG, 1:500 (Sigma) at 37° C. in humidified chambers for 1 h and washed with TBST (0.1%). A drop of mount oil containing DAPI (Santa Cruz Biotechnology, Santa Cruz, CA) was added to the slides before visualization with a Zeiss ZI fluorescence microscope. Images were captured at 40× magnification.

HCMV TB40 = experiment: Drug combination with letermovir, plaque assay TB40, Bliss model; type: cell-based, human cytomegalovirus; conditions: Human betaherpesvirus 5, read-out: EC50 of Compound 1 (Letermovir)
Protocol: (§1) Drug combination and analysis: These experiments were performed as previously reported^40. The combination of GCV and each compound was tested using the pp28-luciferase. Briefly, 2×10^6 HFFs/plate were seeded in 96-well plates and infected with the pp28-luciferase Towne HCMV strain (MOI=1). First, a dose response curve was generated for each drug individually to determine its EC50. Then, drugs were combined at twice their EC50, diluted in DMEM with 4% FBS, followed by serial dilution and added together after infection. Luciferase activity of the combination and each drug individually was quantified at 72 hpi. The combination of letermovir and each of the new compounds was tested by the plaque assay using TB40. The same principle applied in this assay for the drug combination effect, and plaques were counted at 8 dpi. The Bliss model was used to calculate the effect of each drug combination on pp28-luciferase activity and plaque reduction. In this model, drug combination represents the product of two probabilistically independent events as described in the following equation^41.
(§2) [formula] Where D is the drug concentration, m is the slope, and EC50 is the effective concentration resulting in 50% virus inhibition. The combined effect of two inhibitors (Fu, fractional unaffected) is computed as the product of individual effects of the two inhibitors, Fu1 and Fu2. If the ratio of observed fold inhibition divided by the expected fold inhibition is greater than 1, the compounds are synergistic. If the ratio is less than 1, the combination is considered antagonistic, and if it equals to 1 the combination is additive.
Pattern of drug combination with GCV and letermovir: The effect of each compound alone or in combination with GCV or letermovir was tested in HCMV-infected HFFs. […] A ratio of observed fold inhibition divided by the expected fold inhibition of >1 was considered drug synergy, <1 as drug antagonism, and =1 as additive. For letermovir and its combination with each of the five compounds the EC50 was determined based on plaque assay. The combination of GCV and 2955 was also tested by plaque assay. All other combinations and Bliss coefficients were measured by pp28- luciferase.

Epstein Barr Virus (EBV) = experiment: Inhibition of lytic EBV replication in Akata cells, real-time PCR of BALF5; type: cell-based; conditions: human gammaherpesvirus 4, IgG induction, real-time PCR at 48 hours, NA = Not active
Protocol: Inhibition of lytic Epstein Barr Virus (EBV) replication: Akata cells (0.5×10^6/well of 24-well plate) latently infected with EBV were induced with 100 μg/ml of goat antihuman IgG (Sigma). Compounds and GCV control were added to triplicate wells immediately after the addition of human IgG. Cells were collected 48 hours after lytic induction for DNA quantification. Cellular DNA was purified using Wizard SV Genomic Kit (Promega, Madison, WI). The effect of the compounds on lytic induction of EBV was analyzed by real-time PCR of the EBV DNA polymerase gene, BALF5^38.
(§3) Inhibition of other herpesviruses: Inhibition of herpes simplex 1 and 2 (HSV1, HSV2), Epstein Barr virus (EBV) and mouse CMV (MCMV) was tested with the five compounds. Plaque reductions assays were used for HSV1, HSV2 and MCMV. Inhibition of lytic EBV replication was measured by real-time PCR in AKATA cells following IgG induction. Only MLS8554 was active against HSV1, HSV2 and MCMV (Table 2).

HSV2 clinical isolate = experiment: Plaque reduction assay, HSV2 in Vero cells; type: cell-based, Human Herpesvirus 2; conditions: Human alphaherpesvirus 2, Vero, read-out: EC50—HSV2-C1 (μM)
Text: (§4) Viruses and antiviral assays: A recombinant pp28-luciferase Towne HCMV strain expressing luciferase under the control of the UL99 (pp28) late promoter was reported to provide a highly-sensitive and reproducible reporter for drug screening^20. A GCV-resistant HCMV pp28-luciferase that contains a C607Y mutation in UL97 was reported^37. The HCMV TB40 strain was obtained from ATCC (VR-1578). Clinical isolates of Human Herpesvirus 1 and 2 (HSV1, HSV2) were collected from the Johns Hopkins Microbiology laboratory without identifiers that could link them to a specific patient. Mouse CMV (MCMV) Smith strain (ATCC VR-1399) was used for infection of MEFs.
(§5) Plaque reduction assay: HFFs were seeded into 12-well plates (2×10^5 cells/well) and infected with HCMV TB40 at approximately 100 plaques/well. After 90 min, media were aspirated, and DMEM containing 0.5% carboxymethyl-cellulose (CMC), 4% fetal bovine serum (FBS), and drugs were added into duplicate wells. Following incubation at 37° C. for 10-12 days the overlay was removed, and plaques were counted after crystal violet staining. For HSV1 and HSV2 replication in Vero cells, the adsorption time was 60 min and plaques were counted after 36 h. Plaque assays in MEFs were completed after 3 days.
as §3

[2] = system: pp28-luciferase Towne HCMV; experiment: Drug combination with GCV, pp28-luciferase Towne, Bliss model; type: cell-based, human cytomegalovirus; conditions: Human betaherpesvirus 5, read-out: EC50 of Compound 1 (GCV), pp28-luciferase Towne, MOI=1, 72 hpi; one value per combination experiment
Protocol: as §1, §2
(§6) Pattern of drug combination with GCV and letermovir: The effect of each compound alone or in combination with GCV or letermovir was tested in HCMV-infected HFFs. […] For letermovir and its combination with each of the five compounds the EC50 was determined based on plaque assay. […] All other combinations and Bliss coefficients were measured by pp28- luciferase.

in vitro = conditions: human
Protocol: Cytotoxicity assay: MTT assay was performed as described by manufacturer's instructions (Sigma-Aldrich). Non-infected cells were treated with compounds for 72 h or 10 days (same time points of the antiviral assay), and 20 μL/well of MTT [3-(4, 5-Dimethyl-2-thiazolyl)-2, 5-diphenyl-2H-tetrazolium bromide], 5 mg/mL in phosphate buffered saline (PBS)] was added to each well. After shaking at 150 rpm for 5 min the plates were incubated at 37° C. for 2-3 h. Conversion of yellow solution to dark blue formazan by mitochondrial dehydrogenases of living cells was quantified by measuring absorbance at 560 nm.
HCMV inhibition was measured by luciferase activity of pp28-recombinant Towne and pp28 GCV-resistant Towne strains of HCMV (72 hpi) and by plaque reduction using HCMV Towne or TB40 (10 days). Viral protein expression was measured by Western blot.

HSV1 clinical isolate = experiment: Plaque reduction assay, HSV1 in Vero cells; type: cell-based, Human Herpesvirus 1; conditions: Human alphaherpesvirus 1, Vero, read-out: EC50—HSV1-C1 (μM)
Text: as §4, §5, §3

[3] = system: Mouse CMV (MCMV) Smith strain; experiment: Plaque assay, mouse CMV in MEFs; type: cell-based, mouse cytomegalovirus; conditions: Murid betaherpesvirus 1; plaque reduction, MEFs; NA = Not active
Text: as §4, §5, §3

HCMV = experiment: Drug combination of GCV and 2955 by plaque assay, Bliss model; type: cell-based, human cytomegalovirus; conditions: Human betaherpesvirus 5; combination experiment with NCGC2955, plaque assay; read-out: EC50 of Compound 1 (GCV)
Protocol: as §1, with “In this model, drug combination represents the product of two probabilistically independent events as described in the following equation^41.” left out
as §6

Molecule	inhibition of HCMV entry (pp65 nuclear staining), in words [1]	EC50 (HCMV TB40)	EC50 (Epstein Barr Virus (EBV))	EC50 (HSV2 clinical isolate)	EC50 [2]	CC50 (in vitro)	EC50 (HSV1 clinical isolate)	EC50 [3]	EC50 (HCMV)
Heparin	inhibited HCMV entry	–	–	–	–	–	–	–	–
COc1cccc(N2CCN(C3=Nc4c(F)cccc4[C@H](CC(=O)O)N3c3cc(C(F)(F)F)ccc3OC)CC2)c1 [Letermovir, letermovir, reference compound]	–	1.1 nM	–	–	–	–	–	–	–
Nc1nc(O)c2ncn(COC(CO)CO)c2n1 [GCV, ganciclovir, reference compound]	did not affect pp65 nuclear staining	–	5200 ± 400 nM	0.58 µM	1330 nM	> 200000 nM	0.04 µM	960 ± 100 nM	770 ± 80 nM
